In ChEMBL document CHEMBL3885861, “Open TG-GATES”:

Organism: Rattus norvegicus
Experiment: Open TG-GATES - Regimen: Daily Repeat
Format: toxicity, organism-based, Sprague-Dawley
Set-up: regimen Daily Repeat, gender Male, age 6 weeks
Conditions: in vivo, po, route gavage; for APTT / Bas / Eos / Fbg / Hb / Ht / Lym / MCH / MCHC / MCV / Mono / Neu / PT / Plat / RBC / Ret / WBC: tissue Blood; for KIDNEY_L / KIDNEY_R / KIDNEY_TOTAL: tissue Kidney; for LIVER: tissue Liver; for A/G / ALP / ALT / AST / BUN / CRE / Ca / Cl / DBIL / GLC / IP / K / LDH / Na / PL / RALB / TBIL / TC / TG / TP / gamma-GTP: tissue Plasma
[1] = 0 mg/kg, 72 h, dose level Control, time 3 day
[2] = 0 mg/kg, […], dose level Control, time 7 day
[3] = 0 mg/kg, […], dose level Control, time 14 day
[4] = 0 mg/kg, […], dose level Control, time 28 day
[5] = 3 mg/kg, 72 h, dose level Low, time 3 day
[6] = 3 mg/kg, […], dose level Low, time 7 day
[7] = 3 mg/kg, […], dose level Low, time 14 day
[8] = 3 mg/kg, […], dose level Low, time 28 day

CN(C)CCC(c1ccc(Cl)cc1)c1ccccn1 (centres undefined) [CHLORPHENIRAMINE]
TERMINAL_BW [1]: 224.6 g
APTT [1]: 23.2 s
Bas [1]: 0%
Eos [1]: 1.2%
Fbg [1]: 295.2 mg/dL
Hb [1]: 13.4 g/dL
Ht [1]: 41.7%
Lym [1]: 77.6%
MCH [1]: 20.6 pg
MCHC [1]: 32.1%
MCV [1]: 64.2 fL
Mono [1]: 2.8%
Neu [1]: 17.4%
PT [1]: 14.5 s
Plat [1]: 127.5 x10_4/uL
RBC [1]: 650.8 x10_4/ul
Ret [1]: 6.9%
WBC [1]: 76.4 x10_2/uL
KIDNEY_L [1]: 0.9 g
KIDNEY_R [1]: 0.9 g
KIDNEY_TOTAL [1]: 1.9 g
LIVER [1]: 10.1 g
A/G [1]: 0.9
ALP [1]: 1824 IU/L
ALT [1]: 44.2 IU/L
AST [1]: 69.4 IU/L
BUN [1]: 14.6 mg/dL
CRE [1]: 0.2 mg/dL
Ca [1]: 10.5 mg/dL
Cl [1]: 107.2 meq/L
DBIL [1]: 0.014 mg/dL
GLC [1]: 182.4 mg/dL
IP [1]: 7.7 mg/dL
K [1]: 4.5 meq/L
LDH [1]: 109.4 IU/L
Na [1]: 142.2 meq/L
PL [1]: 151.6 mg/dL
RALB [1]: 2.7 g/dL
TBIL [1]: 0.034 mg/dL
TC [1]: 79 mg/dL
TG [1]: 87.8 mg/dL
TP [1]: 5.8 g/dL
gamma-GTP [1]: 1.4 IU/L
TERMINAL_BW [2]: 265.1 g
TERMINAL_BW [3]: 314.1 g
TERMINAL_BW [4]: 409.3 g
APTT [2]: 18.7 s
Bas [2]: 0%
Eos [2]: 0.8%
Fbg [2]: 323.4 mg/dL
Hb [2]: 14 g/dL
Ht [2]: 43.3%
Lym [2]: 78.6%
MCH [2]: 20.5 pg
MCHC [2]: 32.4%
MCV [2]: 63.3 fL
Mono [2]: 2.8%
Neu [2]: 16.6%
PT [2]: 13.9 s
Plat [2]: 113.9 x10_4/uL
RBC [2]: 684.8 x10_4/ul
Ret [2]: 5.9%
WBC [2]: 83.1 x10_2/uL
APTT [3]: 20.3 s
Bas [3]: 0.4%
Eos [3]: 1%
Fbg [3]: 308.2 mg/dL
Hb [3]: 14.8 g/dL
Ht [3]: 45.2%
Lym [3]: 76.8%
MCH [3]: 20.4 pg
MCHC [3]: 32.7%
MCV [3]: 62.2 fL
Mono [3]: 2.2%
Neu [3]: 18.8%
PT [3]: 14.5 s
Plat [3]: 111 x10_4/uL
RBC [3]: 727.2 x10_4/ul
Ret [3]: 3.8%
WBC [3]: 90.4 x10_2/uL
APTT [4]: 17.8 s
Bas [4]: 0.2%
Eos [4]: 1.2%
Fbg [4]: 280.8 mg/dL
Hb [4]: 15.4 g/dL
Ht [4]: 45.7%
Lym [4]: 76.4%
MCH [4]: 18.9 pg
MCHC [4]: 33.7%
MCV [4]: 56.2 fL
Mono [4]: 2%
Neu [4]: 19.8%
PT [4]: 14.5 s
Plat [4]: 115.9 x10_4/uL
RBC [4]: 813.8 x10_4/ul
Ret [4]: 2.5%
WBC [4]: 96.5 x10_2/uL
KIDNEY_L [2]: 1 g
KIDNEY_R [2]: 1 g
KIDNEY_TOTAL [2]: 2.1 g
KIDNEY_L [3]: 1.1 g
KIDNEY_R [3]: 1.1 g
KIDNEY_TOTAL [3]: 2.2 g
KIDNEY_L [4]: 1.4 g
KIDNEY_R [4]: 1.4 g
KIDNEY_TOTAL [4]: 2.8 g
LIVER [2]: 12.2 g
LIVER [3]: 12.9 g
LIVER [4]: 17.3 g
A/G [2]: 0.8
ALP [2]: 1518.2 IU/L
ALT [2]: 43.2 IU/L
AST [2]: 65.8 IU/L
BUN [2]: 15.4 mg/dL
CRE [2]: 0.2 mg/dL
Ca [2]: 11.6 mg/dL
Cl [2]: 104.8 meq/L
DBIL [2]: 0.018 mg/dL
GLC [2]: 193.8 mg/dL
IP [2]: 8.1 mg/dL
K [2]: 4.2 meq/L
LDH [2]: 90.8 IU/L
Na [2]: 143.2 meq/L
PL [2]: 166.4 mg/dL
RALB [2]: 2.8 g/dL
TBIL [2]: 0.034 mg/dL
TC [2]: 86.6 mg/dL
TG [2]: 139.6 mg/dL
TP [2]: 6.1 g/dL
gamma-GTP [2]: 1 IU/L
A/G [3]: 0.8
ALP [3]: 1632.2 IU/L
ALT [3]: 38.2 IU/L
AST [3]: 66.4 IU/L
BUN [3]: 15.6 mg/dL
CRE [3]: 0.2 mg/dL
Ca [3]: 10.9 mg/dL
Cl [3]: 106.4 meq/L
DBIL [3]: 0.016 mg/dL
GLC [3]: 187.2 mg/dL
IP [3]: 6.9 mg/dL
K [3]: 4.2 meq/L
LDH [3]: 77 IU/L
Na [3]: 143.4 meq/L
PL [3]: 153.4 mg/dL
RALB [3]: 2.8 g/dL
TBIL [3]: 0.038 mg/dL
TC [3]: 72.6 mg/dL
TG [3]: 126 mg/dL
TP [3]: 6.1 g/dL
gamma-GTP [3]: 1 IU/L
A/G [4]: 0.8
ALP [4]: 1089.8 IU/L
ALT [4]: 37.2 IU/L
AST [4]: 60.4 IU/L
BUN [4]: 17.4 mg/dL
CRE [4]: 0.2 mg/dL
Ca [4]: 10.6 mg/dL
Cl [4]: 106.8 meq/L
DBIL [4]: 0.016 mg/dL
GLC [4]: 186.2 mg/dL
IP [4]: 6.3 mg/dL
K [4]: 4.2 meq/L
LDH [4]: 77.4 IU/L
Na [4]: 144.8 meq/L
PL [4]: 168.4 mg/dL
RALB [4]: 2.9 g/dL
TBIL [4]: 0.026 mg/dL
TC [4]: 79.6 mg/dL
TG [4]: 174 mg/dL
TP [4]: 6.4 g/dL
gamma-GTP [4]: 1 IU/L
TERMINAL_BW [5]: 233.5 g
APTT [5]: 18.3 s
Bas [5]: 0.2%
Eos [5]: 1%
Fbg [5]: 299.4 mg/dL
Hb [5]: 13.3 g/dL
Ht [5]: 41.5%
Lym [5]: 80.4%
MCH [5]: 21 pg
MCHC [5]: 32.1%
MCV [5]: 65.5 fL
Mono [5]: 2.8%
Neu [5]: 15.2%
PT [5]: 14.5 s
Plat [5]: 124 x10_4/uL
RBC [5]: 634 x10_4/ul
Ret [5]: 7.1%
WBC [5]: 89 x10_2/uL
KIDNEY_L [5]: 1 g
KIDNEY_R [5]: 0.9 g
KIDNEY_TOTAL [5]: 1.9 g
LIVER [5]: 11.3 g
A/G [5]: 0.8
ALP [5]: 1834.4 IU/L
ALT [5]: 44.4 IU/L
AST [5]: 66.4 IU/L
BUN [5]: 16.2 mg/dL
CRE [5]: 0.2 mg/dL
Ca [5]: 10.6 mg/dL
Cl [5]: 106.2 meq/L
DBIL [5]: 0.018 mg/dL
GLC [5]: 183.6 mg/dL
IP [5]: 8.3 mg/dL
K [5]: 4.3 meq/L
LDH [5]: 94.6 IU/L
Na [5]: 142 meq/L
PL [5]: 162.6 mg/dL
RALB [5]: 2.7 g/dL
TBIL [5]: 0.04 mg/dL
TC [5]: 86.6 mg/dL
TG [5]: 109.8 mg/dL
TP [5]: 5.8 g/dL
gamma-GTP [5]: 1 IU/L
TERMINAL_BW [6]: 265.1 g
TERMINAL_BW [7]: 330.4 g
TERMINAL_BW [8]: 400.2 g
APTT [6]: 19.8 s
Bas [6]: 0%
Eos [6]: 1%
Fbg [6]: 289.8 mg/dL
Hb [6]: 13.7 g/dL
Ht [6]: 41.7%
Lym [6]: 77.2%
MCH [6]: 20.6 pg
MCHC [6]: 32.8%
MCV [6]: 62.8 fL
Mono [6]: 2.6%
Neu [6]: 18.4%
PT [6]: 14 s
Plat [6]: 116 x10_4/uL
RBC [6]: 665 x10_4/ul
Ret [6]: 6%
WBC [6]: 80.2 x10_2/uL
APTT [7]: 18.1 s
Bas [7]: 0.2%
Eos [7]: 1%
Fbg [7]: 299 mg/dL
Hb [7]: 14.4 g/dL
Ht [7]: 43.5%
Lym [7]: 80.2%
MCH [7]: 20.5 pg
MCHC [7]: 33.1%
MCV [7]: 61.9 fL
Mono [7]: 2.8%
Neu [7]: 15%
PT [7]: 14.4 s
Plat [7]: 119.7 x10_4/uL
RBC [7]: 703.8 x10_4/ul
Ret [7]: 4.6%
WBC [7]: 85 x10_2/uL
APTT [8]: 17.7 s
Bas [8]: 0.4%
Eos [8]: 1%
Fbg [8]: 281.2 mg/dL
Hb [8]: 15.6 g/dL
Ht [8]: 46.5%
Lym [8]: 77.4%
MCH [8]: 19 pg
MCHC [8]: 33.5%
MCV [8]: 56.8 fL
Mono [8]: 2.4%
Neu [8]: 18%
PT [8]: 14.5 s
Plat [8]: 107.8 x10_4/uL
RBC [8]: 819.6 x10_4/ul
Ret [8]: 2.4%
WBC [8]: 82.8 x10_2/uL
KIDNEY_L [6]: 1.1 g
KIDNEY_R [6]: 1.1 g
KIDNEY_TOTAL [6]: 2.2 g
KIDNEY_L [7]: 1.2 g
KIDNEY_R [7]: 1.2 g
KIDNEY_TOTAL [7]: 2.5 g
KIDNEY_L [8]: 1.4 g
KIDNEY_R [8]: 1.4 g
KIDNEY_TOTAL [8]: 2.8 g
LIVER [6]: 12.6 g
LIVER [7]: 14.8 g
LIVER [8]: 15.6 g
A/G [6]: 0.8
ALP [6]: 1694.2 IU/L
ALT [6]: 41.6 IU/L
AST [6]: 68 IU/L
BUN [6]: 15.6 mg/dL
CRE [6]: 0.2 mg/dL
Ca [6]: 11.4 mg/dL
Cl [6]: 106.2 meq/L
DBIL [6]: 0.014 mg/dL
GLC [6]: 194 mg/dL
IP [6]: 7.7 mg/dL
K [6]: 4.2 meq/L
LDH [6]: 93 IU/L
Na [6]: 144 meq/L
PL [6]: 159.8 mg/dL
RALB [6]: 2.7 g/dL
TBIL [6]: 0.032 mg/dL
TC [6]: 77.8 mg/dL
TG [6]: 135 mg/dL
TP [6]: 6 g/dL
gamma-GTP [6]: 1 IU/L
A/G [7]: 0.8
ALP [7]: 1670 IU/L
ALT [7]: 39.2 IU/L
AST [7]: 64.2 IU/L
BUN [7]: 16.4 mg/dL
CRE [7]: 0.2 mg/dL
Ca [7]: 11.1 mg/dL
Cl [7]: 105.2 meq/L
DBIL [7]: 0.02 mg/dL
GLC [7]: 194 mg/dL
IP [7]: 7.7 mg/dL
K [7]: 4.1 meq/L
LDH [7]: 103.6 IU/L
Na [7]: 143.4 meq/L
PL [7]: 160.8 mg/dL
RALB [7]: 2.8 g/dL
TBIL [7]: 0.034 mg/dL
TC [7]: 77 mg/dL
TG [7]: 153 mg/dL
TP [7]: 6.1 g/dL
gamma-GTP [7]: 1 IU/L
A/G [8]: 0.8
ALP [8]: 1190.6 IU/L
ALT [8]: 38.6 IU/L
AST [8]: 63.8 IU/L
BUN [8]: 17 mg/dL
CRE [8]: 0.2 mg/dL
Ca [8]: 10.6 mg/dL
Cl [8]: 107.6 meq/L
DBIL [8]: 0.014 mg/dL
GLC [8]: 186.2 mg/dL
IP [8]: 6.2 mg/dL
K [8]: 4 meq/L
LDH [8]: 70.4 IU/L
Na [8]: 145 meq/L
PL [8]: 156.2 mg/dL
RALB [8]: 2.8 g/dL
TBIL [8]: 0.028 mg/dL
TC [8]: 75.2 mg/dL
TG [8]: 148 mg/dL
TP [8]: 6.4 g/dL
gamma-GTP [8]: 0.8 IU/L
